Results reported in patent publication US8034811B2, “Hydroxamic acid esters and pharmaceutical use thereof” (Leo Pharma A/S, priority 2003, dated 2011).

target: T1, human intracellular domain of KDR (VEGF Receptor-2) (Homo sapiens, UniProt P35968); test: In vitro KDR kinase assay; format: biochemical; settings: IC50 as molar concentration; GST-KDR-cyt, substrate phospholipase Cγ, ATP 100 μM, 30 min room temperature, time-resolved fluorometry
T1 construct: A fusion protein containing the intracellular domain (amino acids 793 to 1357) of the KDR and N-terminally tagged to GST; made in house; host or cells: Sf9 insect cells (baculovirus, pDEST20) for GST-KDR-cyt; E. coli BL21 (pGEX-4T-1) for GST-PLCγ
Method: The intracellular domain of the KDR receptor was used in the in vitro KDR assay. This domain contains the tyrosine kinase domain of KDR, and when expressed in Sf9 cells, this domain is constitutively active i.e. the kinase domain is phosphorylated on tyrosine residues.
The compounds to be tested were dissolved in DMSO at 10 mM, stored at −20° C. and protected from light. The maximum concentration of DMSO in the in vitro assay was 0.1%. Control samples received the same concentration of solvent as the samples treated with the test compounds.
For the kinase assays, black 96 wells MaxiSorp microtiter plates were coated by an overnight incubation with 100 μl/well of a 2.5 μg/ml solution of phospholipase Cγ in TBS buffer (40 mM Tris-HCl, pH 7.4, 20 mM Mg(C2H3O2)2, 0.02% NaN3) at 4° C. The plates were washed 3 times with TBS buffer containing 0.1% Tween-20, and the residual binding sites were masked by incubation with 1% BSA in TBS buffer containing 0.1% Tween-20 for 1 h. The plates were washed again and the test compounds were added at final concentrations up to 10 μM, together with ATP at the final concentration of 100 μM in 50 μl TBS buffer/well. Then, 50 μl of the human intracellular domain of KDR (VEGF Receptor-2) finally diluted 3000-3500 fold were added and were incubated for 30 min at room temperature. The plates were washed and 100 μl of the Europium labelled PY-20 anti-phosphotyrosine antibody (Wallac, FIN) were incubated in each well at the concentration of approximately 114 ng/ml for 2 h. Then, the plates were washed and 100 μl of enhancer solution (Wallac, FIN) were incubated in each well for 5 min in the dark. The plates were read in a Victor 1420 multilabel counter, using a Europium protocol for time-resolved fluorometry (Wallac, FIN): excitation 340 nm, emission 615 nm, sample pulse cycle 400 μs. Fluorescence was measured for 400 μs between flashes after a delay time of 400 μs. The background measured in the absence of enzyme was subtracted from all samples. The molar concentrations that inhibited 50% of the maximal enzymatic activity (IC50) were calculated from the dose-response curve, by fitting a straight line between the two concentrations immediately above and below the 50% inhibition point (i.e. by solving the equation y=a+bx).

T1 sequence (P35968 794-1356 limits assumed): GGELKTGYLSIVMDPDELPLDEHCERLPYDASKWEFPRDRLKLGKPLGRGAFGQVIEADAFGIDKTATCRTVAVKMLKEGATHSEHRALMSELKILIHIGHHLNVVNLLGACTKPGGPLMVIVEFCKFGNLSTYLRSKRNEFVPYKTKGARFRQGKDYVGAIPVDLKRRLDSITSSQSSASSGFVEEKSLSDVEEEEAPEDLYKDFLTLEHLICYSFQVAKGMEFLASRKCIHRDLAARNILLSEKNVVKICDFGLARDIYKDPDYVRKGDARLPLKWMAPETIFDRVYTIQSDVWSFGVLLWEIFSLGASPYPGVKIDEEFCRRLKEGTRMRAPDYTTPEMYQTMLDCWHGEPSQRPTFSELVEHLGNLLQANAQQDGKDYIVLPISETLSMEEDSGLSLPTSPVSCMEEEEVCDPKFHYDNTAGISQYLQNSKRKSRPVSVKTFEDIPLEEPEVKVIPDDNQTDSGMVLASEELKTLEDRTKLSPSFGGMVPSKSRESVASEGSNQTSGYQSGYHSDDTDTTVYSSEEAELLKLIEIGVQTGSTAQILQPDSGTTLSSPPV

Row | SMILES | IC50 [nM]
1 | O=C(NOCc1ccccc1)c1ccccc1NCc1ccncc1 [Compound 1, N-Benzyloxy-2-[(pyridin-4-ylmethyl)-amino]-benzamide] | 79.4
2 | O=C(NOCc1ccc([N+](=O)[O-])cc1)c1ccccc1NCc1ccncc1 [Compound 2, N-(4-Nitro-benzyloxy)-2-[(pyridin-4-ylmethyl)-amino]-benzamide] | 126
3 | O=C(NOCc1ccccc1[N+](=O)[O-])c1ccccc1NCc1ccncc1 [Compound 3, N-(2-Nitro-benzyloxy)-2-[(pyridin-4-ylmethyl)-amino]-benzamide] | 100
4 | O=C(NOCc1cccc(C(F)(F)F)c1)c1ccccc1NCc1ccncc1 [Compound 4, 2-[(Pyridin-4-ylmethyl)-amino]-N-(3-trifluoromethyl-benzyloxy)-benzamide] | 200
5 | O=C(NOCc1ccccc1C(F)(F)F)c1ccccc1NCc1ccncc1 [Compound 5, 2-[(Pyridin-4-ylmethyl)-amino]-N-(2-trifluoromethyl-benzyloxy)-benzamide] | 31.6
6 | O=C(NOCc1ccc(C(F)(F)F)cc1)c1ccccc1NCc1ccncc1 [Compound 6, N2-[(Pyridin-4-ylmethyl)-amino]-N-(4-trifluoromethyl-benzyloxy)-benzamide] | 63.1
7 | COc1ccc(CONC(=O)c2ccccc2NCc2ccncc2)cc1 [Compound 7, N-(4-Methoxy-benzyloxy)-2-[(pyridin-4-ylmethyl)-amino]-benzamide] | 39.8
8 | COc1cccc(CONC(=O)c2ccccc2NCc2ccncc2)c1 [Compound 8, N-(3-Methoxy-benzyloxy)-2-[(pyridin-4-ylmethyl)-amino]-benzamide] | 31.6
9 | COc1cc(CONC(=O)c2ccccc2NCc2ccncc2)cc(OC)c1OC [Compound 9, 2-[(pyridin-4-ylmethyl)-amino]-N-(3,4,5-trimethoxy-benzyloxy)-benzamide] | 100
10 | O=C(NOCc1ccc(Cl)cc1)c1ccccc1NCc1ccncc1 [Compound 10, N-(4-Chloro-benzyloxy)-2-[(pyridin-4-ylmethyl)-amino]-benzamide] | 50.1
11 | O=C(NOCc1cccc(Cl)c1)c1ccccc1NCc1ccncc1 [Compound 11, N-(3-Chloro-benzyloxy)-2-[(pyridin-4-ylmethyl)-amino]-benzamide] | 126
12 | O=C(NOCc1ccccc1Cl)c1ccccc1NCc1ccncc1 [Compound 12, N-(2-Chloro-benzyloxy)-2-[(pyridin-4-ylmethyl)-amino]-benzamide] | 15.8
13 | O=C(NOCc1ccccc1Br)c1ccccc1NCc1ccncc1 [Compound 13, N-(2-Bromo-benzyloxy)-2-[(pyridin-4-ylmethyl)-amino]-benzamide] | 15.8
14 | O=C(NOCc1ccc(Cl)cc1Cl)c1ccccc1NCc1ccncc1 [Compound 14, N-(2,4-Dichloro-benzyloxy)-2-[(pyridin-4-ylmethyl)-amino]-benzamide] | 6.31
15 | O=C(NOCc1ccc(Cl)c(Cl)c1)c1ccccc1NCc1ccncc1 [Compound 15, N-(3,4-Dichloro-benzyloxy)-2-[(pyridine-4-ylmethyl)-amino]-benzamide] | 50.1
16 | O=C(NOCc1c(Cl)cccc1Cl)c1ccccc1NCc1ccncc1 [Compound 16, N-(2,6-Dichloro-benzyloxy)-2-[(pyridin-4-ylmethyl)-amino]-benzamide] | 25.1
17 | O=C(NOCc1cc(Cl)cc(Cl)c1)c1ccccc1NCc1ccncc1 [Compound 17, N-(3,5-Dichloro-benzyloxy)-2-[(pyridin-4-ylmethyl)-amino]-benzamide] | 63.1
18 | O=C(NOCc1cccc(Cl)c1Cl)c1ccccc1NCc1ccncc1 [Compound 18, N-(2,3-Dichloro-benzyloxy)-2-[(pyridin-4-ylmethyl)-amino]-benzamide] | 20
19 | O=C(NOCc1cc(Cl)ccc1Cl)c1ccccc1NCc1ccncc1 [Compound 19, N-(2,5-Dichloro-benzyloxy)-2-[(pyridin-4-ylmethyl)-amino]-benzamide] | 63.1
20 | O=C(NOCc1ccccc1F)c1ccccc1NCc1ccncc1 [Compound 20, N-(2-Fluoro-benzyloxy)-2-[(pyridin-4-ylmethyl)-amino]-benzamide] | 31.6
21 | O=C(NOCc1cccc(F)c1)c1ccccc1NCc1ccncc1 [Compound 21, N-(3-Fluoro-benzyloxy)-2-[(pyridin-4-ylmethyl)-amino]-benzamide] | 25.1
22 | O=C(NOCc1ccc(F)cc1)c1ccccc1NCc1ccncc1 [Compound 22, N-(4-Fluoro-benzyloxy)-2-[(pyridin-4-ylmethyl)-amino]-benzamide] | 25.1

Results, then the compound that gave them:

Row | IC50 [nM] | SMILES
23 | 39.8 | CO[C@@H]1CCC[C@H](CONC(=O)c2ccccc2NCc2ccncc2)C1 (stereo in doubt) [Compound 131, N-(3-Methoxy-cyclohexylmethoxy)-2-[(pyridin-4-ylmethyl)-amino]-benzamide]
24 | 20 | O=C(NOCC1C[C@@H]2CC[C@H]1C2)c1ccccc1NCc1ccncc1 (stereo in doubt) [Compound 133, N-(Bicyclo[2.2.1]hept-2-ylmethoxy)-2-[(pyridin-4-ylmethyl)-amino]-benzamide]
25 | 25.1 | O=C(NOCc1c(F)cccc1Cl)c1ccccc1NCc1ccncc1 [Compound 23, N-(2-Chloro-6-fluoro-benzyloxy)-2-[(pyridin-4-ylmethyl)-amino]-benzamide]
26 | 20 | O=C(NOCc1ccc(F)cc1Cl)c1ccccc1NCc1ccncc1 [Compound 24, N-(2-Chloro-4-fluoro-benzyloxy)-2-[(pyridin-4-ylmethyl)-amino]-benzamide]
27 | 50.1 | O=C(NOCc1cccc(Cl)c1F)c1ccccc1NCc1ccncc1 [Compound 25, N-(3-Chloro-2-fluoro-benzyloxy)-2-[(pyridin-4-ylmethyl)-amino]-benzamide]
28 | 79.4 | COC(=O)c1ccc(CONC(=O)c2ccccc2NCc2ccncc2)cc1 [Compound 26, 4-{2-[(pyridin-4-ylmethyl)-amino]-benzoylaminooxymethyl}-benzoic acid methyl ester]
29 | 12.6 | N#Cc1ccc(CONC(=O)c2ccccc2NCc2ccncc2)cc1 [Compound 27, N-(4-cyano-benzyloxy)-2-[(pyridin-4-ylmethyl)-amino]-benzamide]
30 | 100 | O=C(NOCc1ccc2ccccc2n1)c1ccccc1NCc1ccncc1 [Compound 28, 2-[(Pyridin-4-ylmethyl)-amino]-N-(quinolin-2-ylmethoxy)-benzamide]
31 | 126 | O=C(NOc1ccccc1)c1ccccc1NCc1ccncc1 [Compound 29, N-Phenoxy-2-[(pyridin-4-ylmethyl)-amino]-benzamide]
32 | 1000 | O=C(NOCCOc1ccccc1)c1ccccc1NCc1ccncc1 [Compound 30, N-(2-Phenoxy-ethoxy)-2-[(pyridin-4-ylmethyl)-amino]-benzamide]
33 | 126 | O=C(NOCCCc1ccccc1)c1ccccc1NCc1ccncc1 [Compound 31, N-(3-Phenyl-propoxy)-2-[(pyridin-4-ylmethyl)-amino]-benzamide]
34 | 20 | Cc1nc(CONC(=O)c2ccccc2NCc2ccncc2)cs1 [Compound 32, N-(2-methyl-thiazol-4 ylmethoxy)-2-[(pyridin-4-ylmethyl)-amino]-benzamide]
35 | 100 | O=C(NOCc1ccccc1)c1cccnc1NCc1ccncc1 [Compound 33, N-Benzyloxy-2-2-[(pyridin-4-ylmethyl)-amino]-nicotinamide]
36 | 794 | COc1ccc(CONC(=O)c2cccnc2NCc2ccc(F)cc2)cc1 [Compound 34, 2-(4-Fluoro-benzylamino)-N-(4-methoxy-benzyloxy)-nicotinamide]
37 | 1000 | COc1ccc(CNc2ncccc2C(=O)NOCc2ccc(OC)cc2)cc1 [Compound 35, 2-(4-Methoxy-benzylamino)-N-(4-methoxy-benzyloxy)-nicotinamide]
38 | 10 | Cc1cc(F)cc(C)c1CONC(=O)c1ccccc1NCc1ccncc1 [Compound 38, N-(4-Fluoro-2,6-dimethyl-benzyloxy)-2-[(pyridin-4-ylmethyl)-amino]-benzamide]
39 | 6.31 | COc1cc(F)ccc1CONC(=O)c1ccccc1NCc1ccncc1 [Compound 39, N-(4-Fluoro-2-methoxy-benzyloxy)-2-[(pyridin-4-ylmethyl)-amino]-benzamide]
40 | 10 | Cc1ccc(CONC(=O)c2ccccc2NCc2ccncc2)c(F)c1F [Compound 40, N-(2,3-Difluoro-4-methyl-benzyloxy)-2-[(pyridin-4-ylmethyl)-amino]-benzamide]
